Experimental data from patent US10087436B2, “Electrophysiologically mature cardiomyocytes and methods for making same” (The Regents of the University of California, priority 2014, dated 2018).

Test system: Ad-Kir2.1-silenced ventricular hESC-CMs
Experiment: Addition of the IK1 blocker Ba2+ to Ad-Kir2.1-silenced ventricular hESC-CMs (patch-clamp)
Type: cell-based, human
Conditions: 200 μM Ba2+
Description: HESC- and hiPSC-CMs were dissociated into single cells with 1 mg/ml collagenase II and plated on 0.1% gelatin-coated glass coverslips. Electrophysiological experiments were performed using whole-cell patch-clamp technique with an Axopatch 200B amplifier and the pClamp9.2 software (Axon Instruments Inc., Foster City, Calif.). Pipette solution was consisted of (mM): 110 K^+ aspartate, 20 KCl, 1 MgCl2, 0.1 Na-GTP, 5 Mg-ATP, 5 Na2-phospocreatine, 1 EGTA and 10 HEPES, with pH of 7.3. The external Tyrode's solution consisted of (mM): 140 NaCl, 5 KCl, 1 CaCl2, 1 MgCl2, 10 glucose, and 10 HEPES with pH of 7.4. Voltage- and current-clamp recordings were performed at 37° C. within 24 to 48 hours after adenovirus transduction. ESC-CMs were categorized into pacemaker, atrial or ventricular phenotypes based on the maximum diastolic potential (MDP), maximum rate of rise of the AP and AP duration (APD). […] Atrial cells with a triangular AP profile have a faster rate of rise than pacemaker cells, more hyperpolarized MDP or resting membrane potential (RMP), and intermediate APD. […] Different protocols as given in insets were employed to elicit the corresponding currents. […] All blockers were purchased from Sigma.

With `[Ba+2]` [Ba^2+] the “firing phenotype upon addition of Ba2+” value was “spontaneously fired APs”.
